Results on 17 molecules are retold here after US8476298B2 (Exelixis, Inc., priority 2003, dated 2013).

Each structure is given as a SMILES string. Where two headings read alike, the source gives them in different places.

One assay addresses c-Kit kinase (Homo sapiens, UniProt P10721). Kind of assay: c-Kit AlphaScreen kinase assay.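 Further: c-Kit kinase phosphorylating biotinylated poly(Glu,Tyr), ATP near its KM, 1 h reaction at ambient temperature, AlphaScreen chemiluminescence with streptavidin donor and anti-phosphotyrosine acceptor beads, 10-point inhibitor titration.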 Type of assay: biochemical. For orientation: In Alpha technology, singlet oxygen from a donor bead excites a nearby acceptor bead.
For assay [1], the target named is T1, Flt-4 (baculovirus expressed human Flt-4 kinase domain D725-R1298) (Homo sapiens, UniProt P35916).
T1 construct: human Flt-4 kinase domain D725-R1298; host or cells: baculovirus expression
Briefly: flt-4 Alphascreen Tyrosine Kinase assay.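 Further: AlphaScreen chemiluminescence read-out of biotinylated poly(Glu,Tyr) 4:1 phosphorylation via streptavidin donor and PY100 anti-phosphotyrosine acceptor beads, ATP near KM, 1 hr kinase reaction, 10-point dose-response.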 Type of assay: biochemical. Conditions: read-out: flt4 IC50.
Procedure: Kinase activity and compound inhibition are investigated using one or more of the three assay formats described below. The ATP concentrations for each assay are selected to be close to the Michaelis-Menten constant (KM) for each individual kinase. Dose-response experiments are performed at 10 different inhibitor concentrations in a 384-well plate format. […] Typically H is close to unity. c-Met Assay
Biochemical activity for flt-4 was assessed using an Alphascreen Tyrosine Kinase protocol. AlphaScreen™ (Perkin Elmer) technology is a proximity assay employing microparticles. Singlet oxygen derived from a donor bead following laser excitation results in chemiluminescence when in proximity (100 Å) to an acceptor bead due to biomolecular interactions. For the Flt-4 assay, donor beads coated with streptavidin and acceptor beads coated with PY100 anti-phosphotyrosine antibody were used (Perkin Elmer). Biotinylated poly(Glu,Tyr) 4:1 (Perkin Elmer) was used as the substrate. Substrate phosphorylation was measured by addition of donor/acceptor beads by chemiluminescence following donor-acceptor bead complex formation. […] Reaction mixtures were incubated for 1 hr at ambient temperature. […] After 2-16 hr incubation at ambient temperature plates were read using an AlphaQuest reader (Perkin Elmer).

The target of assay [2] is T2, c-Met (baculovirus expressed human c-Met kinase domain P948-S1343) (Homo sapiens, UniProt P08581).
T2 construct: human c-Met kinase domain P948-S1343; host or cells: baculovirus expression
Kind of assay: c-Met Luciferase-Coupled Chemiluminescent Kinase assay (LCCA).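 Further: kinase activity read as percent ATP left after reaction, by luciferase-luciferin chemiluminescence, with 1 µM ATP and 1 µM poly-EY substrate, 2 h at ambient temperature, 10-point dose-response.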 Type of assay: biochemical.

The target of assay [3] is T3, KDR (baculovirus expressed human KDR kinase domain D807-V1356) (Homo sapiens, UniProt P35968).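 Further: Luciferase-coupled chemiluminescent kinase assay, activity read as percent ATP left after 4 h reaction at ambient temperature, ATP near KM, 10-point dose-response in 384-well plates.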
T3 construct: human KDR kinase domain D807-V1356; host or cells: baculovirus expression
Kind of assay: biochemical.
Procedure: Kinase activity and compound inhibition are investigated using one or more of the three assay formats described below. The ATP concentrations for each assay are selected to be close to the Michaelis-Menten constant (KM) for each individual kinase. Dose-response experiments are performed at 10 different inhibitor concentrations in a 384-well plate format.
KDR biochemical activity was assessed using a Luciferase-Coupled Chemiluminescent Kinase assay (LCCA) format. Kinase activity was measured as the percent ATP remaining following the kinase reaction. Remaining ATP was detected by luciferase-luciferin-coupled chemiluminescence. […] The mixture is incubated at ambient temperature for 4 hours after which 20 uL luciferase-luciferin mix is added and the chemiluminescent signal read using a Wallac Victor^2 reader.

Assay [4] has as its target T4, Flt-3 (baculovirus expressed human Flt-3 kinase domain R571-S993) (Homo sapiens, UniProt P36888).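 Further: Luciferase-coupled chemiluminescent kinase assay, activity read as percent ATP left after a 3 h reaction at room temperature, ATP near KM, 10-point dose-response.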
T4 construct: human Flt-3 kinase domain R571-S993; host or cells: baculovirus expression
T4 sequence (P36888 571-993): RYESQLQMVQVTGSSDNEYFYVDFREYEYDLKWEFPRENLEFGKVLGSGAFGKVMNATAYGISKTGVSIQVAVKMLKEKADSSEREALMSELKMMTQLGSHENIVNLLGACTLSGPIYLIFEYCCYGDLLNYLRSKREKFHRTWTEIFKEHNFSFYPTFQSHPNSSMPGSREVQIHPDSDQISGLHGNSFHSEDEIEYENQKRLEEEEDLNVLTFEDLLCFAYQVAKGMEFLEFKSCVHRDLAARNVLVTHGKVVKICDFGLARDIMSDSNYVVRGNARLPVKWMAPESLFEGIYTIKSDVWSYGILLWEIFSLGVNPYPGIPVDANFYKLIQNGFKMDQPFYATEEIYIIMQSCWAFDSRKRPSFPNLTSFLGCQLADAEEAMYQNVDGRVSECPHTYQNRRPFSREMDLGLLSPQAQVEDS
Briefly: biochemical. Conditions: read-out: flt3 IC50.

Setting [5] is: Table 4, inhibition as IC50 class.

T3 sequence (P35968 807-1356): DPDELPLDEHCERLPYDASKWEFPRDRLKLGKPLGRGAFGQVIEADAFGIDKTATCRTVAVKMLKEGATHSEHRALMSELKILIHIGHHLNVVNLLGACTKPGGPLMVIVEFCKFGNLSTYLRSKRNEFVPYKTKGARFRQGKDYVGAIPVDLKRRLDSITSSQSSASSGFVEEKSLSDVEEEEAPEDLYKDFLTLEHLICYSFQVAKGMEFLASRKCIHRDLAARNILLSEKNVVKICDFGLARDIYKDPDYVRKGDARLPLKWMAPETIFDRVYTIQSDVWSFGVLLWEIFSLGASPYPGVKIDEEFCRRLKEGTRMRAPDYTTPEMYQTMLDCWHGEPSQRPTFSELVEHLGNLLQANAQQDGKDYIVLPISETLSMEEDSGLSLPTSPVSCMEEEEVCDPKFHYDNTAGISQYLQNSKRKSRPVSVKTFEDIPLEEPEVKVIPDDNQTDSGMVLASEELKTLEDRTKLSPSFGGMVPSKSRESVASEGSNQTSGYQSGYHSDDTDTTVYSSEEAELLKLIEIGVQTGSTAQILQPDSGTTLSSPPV
T1 sequence (P35916 725-1298 isoform P35916-1): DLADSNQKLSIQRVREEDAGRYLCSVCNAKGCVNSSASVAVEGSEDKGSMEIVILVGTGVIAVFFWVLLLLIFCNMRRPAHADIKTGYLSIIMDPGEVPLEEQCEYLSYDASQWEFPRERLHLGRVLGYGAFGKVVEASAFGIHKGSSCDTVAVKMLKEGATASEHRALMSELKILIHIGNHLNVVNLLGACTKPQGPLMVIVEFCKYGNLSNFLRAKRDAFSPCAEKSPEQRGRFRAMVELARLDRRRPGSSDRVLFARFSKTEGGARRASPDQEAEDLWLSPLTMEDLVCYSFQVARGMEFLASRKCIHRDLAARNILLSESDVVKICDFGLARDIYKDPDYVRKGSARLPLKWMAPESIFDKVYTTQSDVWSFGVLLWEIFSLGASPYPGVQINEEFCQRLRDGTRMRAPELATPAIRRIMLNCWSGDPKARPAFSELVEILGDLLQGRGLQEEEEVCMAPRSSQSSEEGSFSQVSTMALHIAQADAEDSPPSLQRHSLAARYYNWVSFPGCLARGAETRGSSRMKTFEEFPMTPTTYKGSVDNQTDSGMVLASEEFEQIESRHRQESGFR
T2 sequence (P08581 1011-1343 limits assumed): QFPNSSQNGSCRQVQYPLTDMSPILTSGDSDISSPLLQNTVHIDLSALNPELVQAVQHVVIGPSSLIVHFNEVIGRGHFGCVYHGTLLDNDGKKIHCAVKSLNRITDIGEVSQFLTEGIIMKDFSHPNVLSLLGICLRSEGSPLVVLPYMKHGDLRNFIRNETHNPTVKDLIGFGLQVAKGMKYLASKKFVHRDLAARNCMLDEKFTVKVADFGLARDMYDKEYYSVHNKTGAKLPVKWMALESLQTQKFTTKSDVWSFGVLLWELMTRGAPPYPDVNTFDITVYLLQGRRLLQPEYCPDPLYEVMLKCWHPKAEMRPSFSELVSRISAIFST
Chain of c-Kit kinase (P10721 26-976): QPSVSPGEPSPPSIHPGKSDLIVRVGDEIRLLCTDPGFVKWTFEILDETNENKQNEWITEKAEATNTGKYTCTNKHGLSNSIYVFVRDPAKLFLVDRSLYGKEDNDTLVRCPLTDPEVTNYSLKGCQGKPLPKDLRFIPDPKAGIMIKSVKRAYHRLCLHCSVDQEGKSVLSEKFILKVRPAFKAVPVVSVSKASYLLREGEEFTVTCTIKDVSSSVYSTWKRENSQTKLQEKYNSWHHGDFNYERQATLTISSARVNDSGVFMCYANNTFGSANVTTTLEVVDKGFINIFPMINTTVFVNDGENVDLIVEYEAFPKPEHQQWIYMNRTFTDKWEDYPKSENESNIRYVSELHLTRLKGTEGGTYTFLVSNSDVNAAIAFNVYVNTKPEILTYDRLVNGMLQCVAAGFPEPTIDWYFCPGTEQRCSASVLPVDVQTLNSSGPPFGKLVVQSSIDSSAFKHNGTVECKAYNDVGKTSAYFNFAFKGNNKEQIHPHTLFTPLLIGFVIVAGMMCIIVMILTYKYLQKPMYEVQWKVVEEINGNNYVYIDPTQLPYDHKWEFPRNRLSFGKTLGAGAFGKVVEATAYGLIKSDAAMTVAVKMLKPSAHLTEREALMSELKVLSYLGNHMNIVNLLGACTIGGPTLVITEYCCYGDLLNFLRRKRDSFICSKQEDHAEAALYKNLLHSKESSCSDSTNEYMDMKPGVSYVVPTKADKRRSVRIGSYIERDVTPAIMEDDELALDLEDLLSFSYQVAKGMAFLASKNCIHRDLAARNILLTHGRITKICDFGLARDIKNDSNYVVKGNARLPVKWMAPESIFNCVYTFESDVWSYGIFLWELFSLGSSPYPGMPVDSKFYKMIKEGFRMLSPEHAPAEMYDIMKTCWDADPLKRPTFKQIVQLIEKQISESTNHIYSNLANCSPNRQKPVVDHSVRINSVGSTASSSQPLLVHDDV

Consider `COc1cc2c(Oc3ccc(NC(=O)C(=O)NC(C)C)cc3F)ccnc2cc1OCC1CCNCC1` [Example 294, N-[3-fluoro-4-({6-(methyloxy)-7-[(piperidin-4-ylmethyl)oxy]quinolin-4-yl}oxy)phenyl]-N′-(1-methylethyl)ethanediamide], for which the IC50 (usually the concentration that gives 50% inhibition) is 50 to 500 nM against c-Kit kinase; 500 to 5000 nM in assay [1]; less than 50 nM in assay [2]; 50 to 500 nM in assay [3]; 50 to 500 nM in assay [4].
As for `COc1cc2c(Oc3ncc(NC(=O)CC(=O)Nc4ccc(F)cc4)cc3Cl)ccnc2cc1OCCCN1CCCCC1` [Example 265, N-[5-chloro-6-({6-(methyloxy)-7-[(3-piperidin-1-ylpropyl)oxy]quinolin-4-yl}oxy)pyridin-3-yl]-N′-(4-fluorophenyl)propanediamide], the IC50 at c-Kit kinase (setting [5]) was 50 to 500 nM; in assay [1] (setting [5]), 50 to 500 nM; in assay [2] (setting [5]), less than 50 nM; in assay [3] (setting [5]), 50 to 500 nM; in assay [4] (setting [5]), less than 50 nM.
On to `COc1cc2c(Oc3ccc(NC(=O)C(=O)NCC(C)c4ccccc4)cc3F)ccnc2cc1OCC1CCNCC1` (stereo not shown) [Example 229, N-[3-fluoro-4-({6-(methyloxy)-7-[(piperidin-4-ylmethyl)oxy]quinolin-4-yl}oxy)phenyl]-N′-(2-phenylpropyl)ethanediamide], for which the IC50 (against c-Kit kinase (setting [5]); in assay [1] (setting [5]); in assay [2] (setting [5]); in assay [3] (setting [5]); in assay [4] (setting [5])) was less than 50 nM throughout.
As for `COc1cc2c(Oc3ncc(NC(=O)C4(C(=O)Nc5ccc(F)cc5)CC4)cc3Cl)ccnc2cc1OCc1ccccc1` [Example 309, N-[5-chloro-6-({6-(methyloxy)-7-[(phenylmethyl)oxy]quinolin-4-yl}oxy)pyridin-3-yl]-N′-(4-fluorophenyl)cyclopropane-1,1-dicarboxamide], the IC50 was 500 to 5000 nM at c-Kit kinase; 500 to 5000 nM in assay [1]; less than 50 nM in assay [2]; 500 to 5000 nM in assay [3]; 50 to 500 nM in assay [4].
With `CCN1CCC(COc2cc3nccc(Oc4ccc(NC(=O)C(=O)N5CCOC(c6ccccc6)C5)cc4F)c3cc2OC)CC1` (stereo not shown) [Example 231, N-(4-{[7-{[(1-ethylpiperidin-4-yl)methyl]oxy}-6-(methyloxy)quinolin-4-yl]oxy}-3-fluorophenyl)-2-oxo-2-(2-phenylmorpholin-4-yl)acetamide], the IC50 at c-Kit kinase (setting [5]) was 50 to 500 nM; in assay [1] (setting [5]) it was 50 to 500 nM; in assay [2] (setting [5]), less than 50 nM; in assay [3] (setting [5]), 50 to 500 nM; in assay [4] (setting [5]), 50 to 500 nM.
On to `CCNC(=O)C(=O)Nc1ccc(Oc2ccnc3cc(OCC4CCNCC4)c(OC)cc23)c(F)c1` [Example 293, N-ethyl-N′-[3-fluoro-4-({6-(methyloxy)-7-[(piperidin-4-ylmethyl)oxy]quinolin-4-yl}oxy)phenyl]ethanediamide], for which the IC50 is 50 to 500 nM at c-Kit kinase; 50 to 500 nM in assay [1]; less than 50 nM in assay [2]; 50 to 500 nM in assay [3]; 50 to 500 nM in assay [4].
With `COc1cc2c(Oc3ccc(NC(=O)C(=O)NCC4CC4)cc3F)ccnc2cc1OCC1CCNCC1` [Example 297, N-(cyclopropylmethyl)-N′-[3-fluoro-4-({6-(methyloxy)-7-[(piperidin-4-ylmethyl)oxy]quinolin-4-yl}oxy)phenyl]ethanediamide], the IC50 at c-Kit kinase was 50 to 500 nM; in assay [1], 50 to 500 nM; in assay [2] it was less than 50 nM; in assay [3], 50 to 500 nM; in assay [4] it was 50 to 500 nM.
`CCCCNC(=O)C(=O)Nc1ccc(Oc2ccnc3cc(OCC4CCNCC4)c(OC)cc23)c(F)c1` [Example 295, N-butyl-N′-[3-fluoro-4-({6-(methyloxy)-7-[(piperidin-4-ylmethyl)oxy]quinolin-4-yl}oxy)phenyl]ethanediamide]: the IC50 is 50 to 500 nM against c-Kit kinase; 50 to 500 nM in assay [1]; less than 50 nM in assay [2]; 50 to 500 nM in assay [3]; 50 to 500 nM in assay [4].
Turning to `COc1cc2nccc(Oc3c(F)cc(NC(=O)C4(C(=O)Nc5ccc(F)cc5)CC4)c(F)c3F)c2cc1OC` [Example 327, N-(4-{[6,7-bis(methyloxy)quinolin-4-yl]oxy}-2,3,5-trifluorophenyl)-N′-(4-fluorophenyl)cyclopropane-1,1-dicarboxamide], the IC50 against c-Kit kinase is 50 to 500 nM; in assay [1] it was 50 to 500 nM; in assay [2], less than 50 nM; in assay [3], less than 50 nM; in assay [4] it was 50 to 500 nM.
As for `COc1cc2c(Oc3ccc(NC(=O)C4(C(=O)Nc5ccc(F)cc5)CC4)cc3F)ncnc2cc1OCC1CCN(C)CC1` [Example 316, N-{3-fluoro-4-[(6-(methyloxy)-7-{[(1-methylpiperidin-4-yl)methyl]oxy}quinazolin-4-yl)oxy]phenyl}-N′-(4-fluorophenyl)cyclopropane-1,1-dicarboxamide], the IC50 (against c-Kit kinase; in assay [1]; in assay [2]; in assay [3]; in assay [4]) was less than 50 nM in each case.
Turning to `COc1cc2c(Oc3ccc(NC(=O)C4(C(=O)Nc5ccc(F)cc5)CC4)c(C)n3)ccnc2cc1OCCCN1CCOCC1` [Example 318, N-(4-fluorophenyl)-N′-[2-methyl-6-({6-(methyloxy)-7-[(3-morpholin-4-ylpropyl)oxy]quinolin-4-yl}oxy)pyridin-3-yl]cyclopropane-1,1-dicarboxamide], the IC50 on c-Kit kinase was 50 to 500 nM; in assay [1], 50 to 500 nM; in assay [2], less than 50 nM; in assay [3] it was less than 50 nM; in assay [4], 50 to 500 nM.
In the case of `COc1cc2c(Oc3ccc(NC(=O)C(=O)N4CCCC4)cc3F)ccnc2cc1OCC1CCNCC1` [Example 299, N-[3-fluoro-4-({6-(methyloxy)-7-[(piperidin-4-ylmethyl)oxy]quinolin-4-yl}oxy)phenyl]-2-oxo-2-pyrrolidin-1-ylacetamide], the IC50 is 50 to 500 nM against c-Kit kinase; 50 to 500 nM in assay [1]; less than 50 nM in assay [2]; 50 to 500 nM in assay [3]; 50 to 500 nM in assay [4].
For the molecule `COCCNC(=O)C(=O)Nc1ccc(Oc2ccnc3cc(OCC4CCNCC4)c(OC)cc23)c(F)c1` [Example 296, N-[3-fluoro-4-({6-(methyloxy)-7-[(piperidin-4-ylmethyl)oxy]quinolin-4-yl}oxy)phenyl]-N′-[2-(methyloxy)ethyl]ethanediamide], the IC50 was 50 to 500 nM at c-Kit kinase; 500 to 5000 nM in assay [1]; 50 to 500 nM in assay [2]; 50 to 500 nM in assay [3]; 50 to 500 nM in assay [4].
Regarding `COc1cc2nccc(Oc3cc(Cl)c(NC(=O)C4(C(=O)Nc5ccc(F)cc5)CC4)cc3C)c2cc1OC` [Example 329, N-(4-{[6,7-bis(methyloxy)quinolin-4-yl]oxy}-2-chloro-5-methylphenyl)-N′-(4-fluorophenyl)cyclopropane-1,1-dicarboxamide], the IC50 was 50 to 500 nM at c-Kit kinase; 50 to 500 nM in assay [1]; less than 50 nM in assay [2]; 50 to 500 nM in assay [3]; 500 to 5000 nM in assay [4].
Regarding `COc1ccc(Br)cc1CCNC(=O)C(=O)Nc1ccc(Oc2ccnc3cc(OCC4CCNCC4)c(OC)cc23)c(F)c1` [Example 280, N-{2-[5-bromo-2-(methyloxy)phenyl]ethyl}-N′-[3-fluoro-4-({6-(methyloxy)-7-[(piperidin-4-ylmethyl)oxy]quinolin-4-yl}oxy)phenyl]ethanediamide], the IC50 (against c-Kit kinase (setting [5]); in assay [1] (setting [5]); in assay [2] (setting [5]); in assay [3] (setting [5]); in assay [4] (setting [5])) was less than 50 nM in each case.
Regarding `COc1cc2c(Oc3ccc(NC(=O)C(=O)NCCOc4ccccc4)cc3F)ccnc2cc1OCC1CCNCC1` [Example 226, N-[3-fluoro-4-({6-(methyloxy)-7-[(piperidin-4-ylmethyl)oxy]quinolin-4-yl}oxy)phenyl]-N′-[2-(phenyloxy)ethyl]ethanediamide], the IC50 (against c-Kit kinase (setting [5]); in assay [1] (setting [5]); in assay [2] (setting [5]); in assay [3] (setting [5]); in assay [4] (setting [5])) was less than 50 nM each time.
Consider `COc1cc2c(Oc3ccc(NC(=O)C(=O)Nc4ccc(F)c(Cl)c4)cc3F)ccnc2cc1OCC1CCNCC1` [Example 261, N-(3-chloro-4-fluorophenyl)-N′-[3-fluoro-4-({6-(methyloxy)-7-[(piperidin-4-ylmethyl)oxy]quinolin-4-yl}oxy)phenyl]ethanediamide], for which the IC50 was 500 to 5000 nM against c-Kit kinase (setting [5]); 50 to 500 nM in assay [1] (setting [5]); less than 50 nM in assay [2] (setting [5]); 500 to 5000 nM in assay [3] (setting [5]); 50 to 500 nM in assay [4] (setting [5]).
